The assay relates to Plasmodium falciparum. The assay can be described thus: GSK_TCMDC: Inhibition of Plasmodium falciparum 3D7 in whole erythrocytes, using parasite LDH activity as an index of growth. Conditions: Plasmodium falciparum, 3D7. The format is functional, organism-based.
The compound `Nc1cc(/C=C/c2ccc([N+](=O)[O-])o2)nc2ccccc12` returned an XC50 of 0.367 µM.

As for `c1ccc(-c2nc(NCCCn3ccnc3)cc(-c3ccncc3)n2)cc1`, the XC50 was 0.167 µM. For the compound `O=C(Cn1c(CCc2cccc(F)c2F)nc(=O)c2cccnc21)N(Cc1ccc(-c2ccc(C(F)(F)F)cc2)cc1)C1CCN(C2CCSCC2)CC1`, the XC50 is 0.23 µM. The same measure for `CCN(CC)CCN(Cc1ccc(-c2ccc(C(F)(F)F)cc2)cc1)C(=O)Cn1c(CCc2c(F)cccc2F)nc(=O)c2ccccc21`: 0.637 µM.

In the case of `CC(C)(C)NCCN(Cc1ccc(-c2ccc(C(F)(F)F)cc2)cc1)C(=O)Cn1c(SCc2ccc(F)cc2)nc(=O)c2c1CCC2`, the XC50 is 0.86 µM. `O=C(/C=C/c1ccc(Cl)c(Cl)c1)NCCCCCN1CCC(n2c(=O)[nH]c3ccccc32)CC1` came in with an XC50 of 0.869 µM. The compound `COc1ccc(-c2cnc(NCc3ccccc3)nc2)cc1CNC1CCN(C)CC1` returned an XC50 of 0.782 µM. The compound `COc1ccccc1C(C)NCC(=O)Nc1cccc(C(=O)Nc2cccc(C(F)(F)F)c2)c1` (configuration not stated) yielded an XC50 of 1.53 µM. Compound `CCc1cc2c(N)nc(N)nc2nc1-c1ccccc1` had an XC50 of 0.946 µM. On to `Oc1c(Br)cc2oc3c(c2c1CNCc1ccccc1)CCCC3`, for which the XC50 is 0.961 µM.

As to `C#CCCC(=O)Nc1cccc(-c2cccc(-c3nc4cc(C(F)(F)F)ccc4[nH]3)c2)c1`, the XC50 was 0.805 µM. `COc1cc2nc(N3CCC(CNC(=O)c4ccc(-c5ccc(C(=O)N(C)C)cc5)c(OCCO)c4)CC3)nc(N)c2cc1OC` registered an XC50 of 0.73 µM. The same measure for `Cc1cc(=NN=Cc2cccc(F)c2)c2cccc(C)c2[nH]1`: 0.77 µM. As to `CN1CCCCC1CCc1cc(C(=O)Nc2ccc(-c3ccc(O)cc3)cc2)ccc1O` (configuration not stated), the XC50 is 1.11 µM. For `Fc1ccc2[nH]c3c(NCCN4CCCCC4)ncnc3c2c1`, the XC50 was 0.834 µM. Next, `Cc1ccnc2nc(C(=O)Nc3cc(Cl)ccc3N3CCOCC3)nn12`: 1.24 µM; `Cc1cc(NC(=O)NC(=N)N)ccc1Cl`: 0.698 µM. The compound `CC(C)Oc1ccc2c(c1)OC(c1ccccc1)(C(F)(F)F)NC2=O` (configuration not stated) gave an XC50 of 0.136 µM. Turning to `Cc1[nH]c(C)c(-c2csc3ccccc23)c(=O)c1Cl`, the XC50 was determined as 1.02 µM. Next, `COc1c(C2CCN(CCCCNC(=O)c3ccc(-c4ccc(NC(=O)C(F)(F)F)cc4)cc3)CC2)ccc2c1CCCC2`: 1 µM; `CCN(CCCN1CCCCC1)c1cc(C)nc(Nc2cccc3c2CCCC3)n1`: 1.03 µM. `COC(=O)c1cccc(CNCc2ccc(-c3ccc(-c4nc5cccc(C)c5[nH]4)cc3)cc2)c1`: the XC50 was found to be 0.283 µM. As to `CC(=O)Nc1ccc(S(=O)(=O)Nc2ccc(Nc3nc(C)cc(N(C)C)n3)cc2)cc1`, the XC50 is 1.16 µM.

In turn, `O=C(Nc1ccc2oc(-c3ccc(Br)cc3)nc2c1)c1ccc([N+](=O)[O-])o1` returned an XC50 of 0.968 µM. Take `NC1CCN(CCc2ccc(NS(=O)(=O)c3cccc4ccccc34)cc2)CC1`: the XC50 turned out to be 1.7 µM. The same measure for `O=c1cc(NCCCNCc2ccc(C(F)(F)F)cc2F)[nH]c2ccccc12`: 0.956 µM; for `CC1CN(CC(O)Cn2c3ccc(Br)cc3c3cc(Br)ccc32)CC(C)O1` (configuration not stated): 0.776 µM; for `COc1cccc(NC(=O)CSc2nc(-c3ccccc3Cl)ns2)c1`: 0.814 µM. The same measure for `COc1ccc(CNCc2ccsc2)cc1-c1ccc(S(=O)(=O)NCCN2CCCC2)s1`: 0.766 µM. The same measure for `CNCCN(C)C(=O)Oc1c(Br)c(C)nc(C)c1-c1ccc(Oc2ccc(OC(F)(F)F)cc2)cc1`: 0.109 µM. In turn, `CN(C)CCNCc1nc(-c2ccc3c(Nc4ccc(Oc5ccccc5)cc4)ccnc3c2)cs1` had an XC50 of 0.736 µM. The compound `COc1cc2nc(N3CCC(CNC(=O)c4ccc(-c5cccc(C#N)c5)cc4)CC3)nc(N)c2cc1OC` registered an XC50 of 0.139 µM. In turn, `CS(=O)(=O)c1ccc(CCNCc2ccc(-c3cccc(-c4nc5ccccc5[nH]4)c3)cc2)cc1` had an XC50 of 0.194 µM. `CN1CCCC(CN2CCN(Cc3ccc(-c4ccc(-c5nc6ccccc6[nH]5)cc4)cc3)CC2)C1` (configuration not stated) displayed an XC50 of 0.141 µM.

The compound `COc1ccc(-c2cccc(NC(=O)c3cccc(C#N)c3)c2)cc1CN1CCC(O)CC1` yielded an XC50 of 0.99 µM. `Cc1cc([N+](=O)[O-])ccc1N1CCN(CCCCNC(=O)c2ccc(NC(=O)c3ccc(Cl)cc3)cc2)CC1` displayed an XC50 of 0.887 µM.

`CC(C)c1ccc(NC(=O)c2ccc(C(=O)NC3CCN(CC4CCCCC4)CC3)cc2)cc1` displayed an XC50 of 0.645 µM. Next, `CCN(CC)/C(=N/C(=N)Nc1ccc(Cl)cc1)NCCCCCCCCN/C(=N\C(=N)Nc1ccc(Cl)cc1)N(CC)CC`: 0.403 µM. Next, `CNC(=O)C1Cc2c([nH]c3ccc(Br)cc23)C2(CCN(CCc3ccccc3)CC2)N1` (configuration not stated): 0.919 µM; `O=C(Nc1cccc(-c2ccc(CN3CCCC3)cc2)c1)c1cccc(F)c1`: 0.783 µM; `CCCCN(CCCC)CCNC(=O)c1cc(OC(F)(F)F)ccc1O`: 0.92 µM. `CS(=O)(=O)Cc1cccc(Nc2ncc(Cl)c(Nc3cccnc3C(N)=O)n2)c1` showed an XC50 of 0.168 µM. Compound `CC(C)(C)c1ccc(NC(=O)c2ccc(CN3CCCN(Cc4ccsc4)CC3)cc2)cc1` gave an XC50 of 0.716 µM.

Regarding `Cc1ccc(CC(C)NCC(O)c2cccc(C(F)(F)F)c2)cc1` (configuration not stated), the XC50 turned out to be 0.981 µM. Take `O=C(Nc1cccc(C(F)(F)F)c1)Nc1ccc(Cl)c(Cl)c1`: the XC50 came out at 0.735 µM.

On to `Cc1csc(-c2nonc2NC(=O)COc2ccccc2C(C)C)n1`, for which the XC50 was determined as 0.551 µM.

For `Cc1cccc2nc(-c3cccc(-c4ccc(C(=O)NCc5nccn5C)cc4)c3)[nH]c12`, the XC50 came to 1.32 µM. Consider `c1ccc(Oc2cccc(Nc3ccnc4ccccc34)c2)cc1`, for which the XC50 was determined as 1.11 µM. In the case of `O=C(Nc1ccc(-c2cccc(-c3nc4cc(C(F)(F)F)ccc4[nH]3)c2)cc1)c1ccc(=O)[nH]n1`, the XC50 came to 1.07 µM. As for `CCCCNCc1cc(Cl)c2ccccc2c1O`, the XC50 was 0.457 µM. `CN(C)CC(O)COc1ccc(Nc2ncc([N+](=O)[O-])c(Nc3ccccc3O)n2)cc1` (configuration not stated): the XC50 came to 0.763 µM. The same measure for `CC(=O)c1cccc(Nc2nc3ccc(OCc4cc(Cl)cc(Cl)c4)c(C#N)c3[nH]2)c1`: 0.869 µM. With `O=C(Nc1cccc(CN2CCCN(Cc3cccc(O)c3)CC2)c1)c1ccc2ccccc2c1`, the XC50 turned out to be 0.786 µM. Next, `ON=C1CCc2cc(-c3[nH]c(-c4cccc(OCCNCc5ccc(F)cc5)c4)nc3-c3ccncc3)ccc21`: 0.89 µM; `Oc1ccc(CCNc2nc(N/N=C/c3ccc(Cl)cc3)nc(N3CCNCC3)n2)cc1`: 0.583 µM. In the case of `COc1ccc(CNCc2cccc(-c3cccc(-c4nc5cc(C(F)(F)F)ccc5[nH]4)c3)c2)cc1`, the XC50 amounted to 0.196 µM. `COc1ccc2ncc(F)c([C@H](O)CN3CCC(NCc4ccc5c(c4)NC(=O)CS5)CC3)c2c1` gave an XC50 of 0.185 µM. The compound `CNC(=O)/C=C/c1cc(NC(=O)Nc2cc(C)nc3c(F)cccc23)ccc1OC` gave an XC50 of 0.908 µM. Turning to `Cc1ccc2[nH]c(C)cc(=NN=Cc3ccccc3Cl)c2c1`, the XC50 amounted to 0.752 µM.

Compound `O=C(CCC1CCCCC1)NCCNc1cccc2ccccc12` came in with an XC50 of 0.831 µM. As for `CN(c1ccc(NC(=O)c2cccc(F)c2)cc1)C1CCCN(Cc2cccc(O)c2)C1` (configuration not stated), the XC50 was found to be 1.3 µM.

In turn, `CC(C)Nc1cc(C(=O)N[C@@H](Cc2ccccc2)[C@H](O)CNC2CCCCC2)cc(N2CCCCS2(=O)=O)c1` came in with an XC50 of 0.103 µM.

Compound `CCOc1cc2c(cc1OCC)C(c1ccc(O)c(Cl)c1)NCC2` (configuration not stated) returned an XC50 of 0.79 µM. `CN(C)Cc1cc2c(O)c(Cc3ccccc3)ccc2o1` came in with an XC50 of 1.09 µM. The same measure for `CN1CCC(c2c[nH]c3ccc(NC(=O)Nc4ccc(-c5ccncc5)c(Cl)c4Cl)cc23)CC1`: 0.696 µM; for `CCCN1CCN(Cc2ccc(-c3ccc(-c4nc5ccccc5[nH]4)s3)cc2)CC1`: 0.611 µM.

With `CCCCCCCCn1c2c(c(=N)c3c1CCC3)CCCC2`, the XC50 was 0.109 µM. Next, `O=C(NCCCCN1CCC(c2ccc3c(c2OCCN2CCCC2)CCCC3)CC1)c1ccc(-c2ccc(C(F)(F)F)cc2)cc1`: 0.447 µM. `CN1CCN(c2cc3c(cc2Br)CCN3C(=O)Nc2ccc(-c3cnc4ccccc4c3)cc2)CC1` displayed an XC50 of 0.576 µM.

Turning to `Cc1cc(NCCc2ccccc2)nc(NC(=N)Nc2ccccc2Cl)n1`, the XC50 came out at 0.789 µM. Next, `Cc1cccc2nc(-c3ccc(-c4cccc(NC(=O)Nc5ccsc5)c4)s3)[nH]c12`: 0.542 µM; `O=C(NCCCCN1CCC(c2ccc3c(c2OC(=O)c2ccc(NC(=O)c4ccc(Cl)cc4)cc2)CCCC3)CC1)c1ccc(NC(=O)c2ccc(Cl)cc2)cc1`: 0.203 µM; `COc1ccc2ncc(Cl)c([C@H](O)CN3CCC(NCc4cc5c(cn4)OCCO5)CC3)c2c1`: 0.116 µM. For `CCC(C)OC(=O)C1=C(C)NC2=C(C(=O)CC(c3ccc(OC)c(OC)c3)C2)C1c1cccc(O)c1` (configuration not stated), the XC50 came out at 0.193 µM.

`COc1cccc(OC)c1C(=O)N1CCC2(CC1)C(=O)N(CC(=O)NC1CCCCC1)CN2c1ccccc1` came in with an XC50 of 0.953 µM.

Compound `CNc1ccc(CNCc2ccc(-c3ccc(-c4nc5cc(F)ccc5[nH]4)cc3)cc2)cc1` displayed an XC50 of 0.21 µM. `CCCCCC(C)N/C(=N/c1ccccc1Br)Nc1ccc(C#N)cc1O` (configuration not stated): the XC50 stood at 0.751 µM. The compound `CN(C)c1ccc(C(c2ccc(N(C)C)cc2)c2cc([N+](=O)[O-])ccc2Cl)cc1` had an XC50 of 0.911 µM.

`COc1cc2nc(NCCC(C)C)n3nc(-c4ccccc4)nc3c2cc1OC` yielded an XC50 of 0.417 µM.

In turn, `COc1cccc(C(=O)NC(C=Cc2ccccc2)c2cc(Cl)c3cccnc3c2O)c1` (configuration not stated) had an XC50 of 0.859 µM. Compound `CC(C)(C)c1ccc(S(=O)(=O)Nc2ccccc2Cn2nc(N3CCNCC3)ccc2=O)cc1` displayed an XC50 of 0.847 µM. Take `CCN1CCCC(CNC(=O)/C(=C/C=C/c2cc3cc(Cl)c(Cl)cc3[nH]2)OC)C1` (configuration not stated): the XC50 is 0.888 µM. In turn, `Nc1c(-c2ccc(C(=O)NCCNCc3ccccc3)cc2)cnn1-c1ccc(C(F)(F)F)cc1` displayed an XC50 of 1.16 µM. The same measure for `CC(C)N(C(=O)CSc1nc2cc(Cl)ccc2c(=O)n1Cc1ccccc1)C(C)C`: 0.167 µM. The same measure for `O=C(Nc1ccc(Br)cc1)N(CCN1CCOCC1)CC(O)COCc1ccc(F)cc1` (configuration not stated): 1.04 µM; for `CC(C)Cc1nc(N2CCOCC2)c2nnn(Cc3ccccc3)c2n1`: 0.508 µM; for `O=C(Cc1ccc(F)cc1)NC1CCN(c2ccnc3cc(Cl)ccc23)C1` (configuration not stated): 0.484 µM.

The values are drawn from ChEMBL document CHEMBL1157539, “Thousands of chemical starting points for antimalarial lead identification” (Nature, 2010).
